Measurements taken from PubChem BioAssay (NCI).
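Briefly, cells in 96-well plates were exposed to five compound concentrations for 48 h, and endpoints were estimated by linear interpolation. Definition used: TGI = concentration required for complete inhibition of growth.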 Where a SMILES comes first, the peptide text is derived from it. [ ]: non-standard residue; d: D form. The star is where a group is joined. ξ: configuration not given here. Propanoyl(3-(4-MeO-Ph)) = COc1ccc(CCC(=O)*)cc1; Thr(3ξ) = CC(O)[C@H](N)C(=O)O; dNMeL = CN[C@H](CC(C)C)C(=O)O; ξLac = CC(O)C(=O)O

What was measured:
Assay in all cases: DTP human tumour cell line panel, 48 h
DU-145 prostate = tested on: DU-145 prostate
T-47D breast = tested on: T-47D breast
NCI/ADR-RES ovarian = tested on: NCI/ADR-RES ovarian
K-562 leukemia = tested on: K-562 leukemia
IGROV1 ovarian = tested on: IGROV1 ovarian
SK-OV-3 ovarian = tested on: SK-OV-3 ovarian
MDA-MB-435 = tested on: MDA-MB-435
MCF7 breast = tested on: MCF7 breast
SF-295 CNS = tested on: SF-295 CNS
U251 CNS = tested on: U251 CNS

Compound	TGI (DU-145 prostate) [µM]	TGI (T-47D breast) [µM]	TGI (NCI/ADR-RES ovarian) [µM]	TGI (K-562 leukemia) [µM]	TGI (IGROV1 ovarian) [µM]	TGI (SK-OV-3 ovarian) [µM]	TGI (MDA-MB-435) [µM]	TGI (MCF7 breast) [µM]	TGI (SF-295 CNS) [µM]	TGI (U251 CNS) [µM]
CCOc1cc2c(cc1O)CC[C@@H]1[C@@H]2CC[C@]2(C)C(OS(=O)OC3CC[C@@H]4[C@H]5CCc6cc(O)c(OCC)cc6[C@@H]5CC[C@@]34C)CC[C@@H]12 (stereo not given in full)	11.5	> 100	23.7	> 55.6	25.8	> 37.3	0.548	7.01	22.5	1.4
CCNc1cc2c3c(c1)CCCN3CCC2	> 100	67.9	52.2	28.3	31.5	37.3	11.2	62.9	32.3	24.7
CC(O)c1cc2c(s1)C(=O)c1scc(C(C)O)c1C2=O (stereo not given)	1.73	4.53	1.05	> 100	3.63	7.76	0.455	3.01	0.364	4.07
COC(=O)c1c(O)ccc2c1c1c(n2Cc2ccccn2)C(=O)c2ccccc2C1=O	> 100	> 100	> 100	> 100	> 100	61.1	> 100	> 100	70.6	> 100
COC(=O)[C@@H](NC(=O)[C@@H](CC(C)C)N(C)C(=O)[C@@H]1CCCN1C(=O)C(C)O)C(C)OC(=O)CCc1ccc(OC)cc1 (stereo not given in full) (H-[ξLac]P[dNMeL][Thr(3ξ)](Propanoyl(3-(4-MeO-Ph)))-OMe)	> 100	> 100	> 100	> 100	> 100	> 100	> 100	> 100	> 100	> 100
COc1nc2ccc(CNc3ccc(C(=O)O)cc3)cc2nc1OC	> 10	> 10	> 10	> 10	> 10	> 10	> 10	> 10	> 10	> 10
COc1cc([C@@H]2c3cc4c(cc3[C@@H](N=Cc3ccc(C(=O)O[C@@H](C(=O)O[C@H]5C[C@@]6(O)[C@@H](OC(=O)c7ccccc7)[C@@H]7[C@]8(OC(C)=O)CO[C@@H]8C[C@H](O)[C@@]7(C)C(=O)[C@H](OC(C)=O)C(=C5C)C6(C)C)[C@@H](NC(=O)c5ccccc5)c5ccccc5)cc3)[C@H]3COC(=O)[C@H]23)OCO4)cc(OC)c1O	> 42.5	> 50	> 50	> 50	> 50	> 22.7	0.00867	7.38	24.8	> 16.9
COc1ccc(CCNC(=O)CCCCCO)cc1OC	> 100	> 100	> 100	> 100	> 100	> 100	> 100	> 100	> 100	> 100
COc1ccc(S(=O)(=O)Nc2ccc(-c3csc(N4C(=O)/C(=C/c5ccccc5)N=C4c4ccccc4)n3)cc2)cc1Cl	86.8	61.9	> 100	> 100	> 100	> 100	> 100	> 100	> 100	78
C=CC[C@@H]1C=C[C@@H](C(=O)OC)n2c(=O)n(-c3ccccc3)c(=O)n21	> 100	> 100	> 100	> 100	> 100	> 100	> 100	> 100	> 100	> 100
CN1CCN(/C(N)=C(\C#N)C(=O)Nc2ccccc2)CC1	> 100	> 100	> 100	> 100	> 100	> 100	> 100	> 100	> 100	> 100
Cc1cc2c(c(C(=O)NCCC(=O)N[C@@H](C)C(=O)OCc3ccccc3)c1)Oc1c(cc(C)cc1C(=O)NCCC(=O)N[C@@H](C)C(=O)OCc1ccccc1)S2	> 100	> 100	> 100	> 100	> 100	> 100	> 100	> 100	> 100	> 100
COc1ccc(N2C(N)=C(C#N)C(C#N)(C#N)C2c2cccc([N+](=O)[O-])c2)cc1 (stereo not given)	31.7	28	43.2	14.7	29.7	38.9	31.9	40.2	39.5	31.7
NNC(=O)CCC(NS(=O)(=O)c1ccc(Cl)cc1)C(=O)NN (stereo not given)	> 100	> 100	> 100	> 100	> 100	> 100	> 100	> 100	> 100	> 100
